Measurements published in ChEMBL document CHEMBL4699455, “2H-1,2,3-Triazole-chalcones as novel cytotoxic agents against prostate cancer” (Bioorg Med Chem Lett, 2020).
Active and inactive are the calls of the source. No cut-off for these calls is given here.

What was measured:
[1] = system: PC-3; assay: Cytotoxicity against human PC-3 cells assessed as reduction in cell viability at 100 uM measured after 24 hrs by MTT assay; assay type: functional, cell-based
[2] = system: PC-3; assay: Cytotoxicity against human PC-3 cells assessed as reduction in cell viability measured after 24 hrs by MTT assay; assay type: functional, cell-based; conditions: PC-3, 24 h
[3] = system: PC-3; assay: Cytotoxicity against human PC-3 cells assessed as reduction in cell viability at 25 uM measured after 24 hrs by MTT assay relative to control; assay type: functional
[4] = system: PC-3; assay: Cytotoxicity against human PC-3 cells assessed as reduction in cell viability at 100 uM measured after 24 hrs by MTT assay relative to control; assay type: functional
[5] = system: PC-3; assay: Cytotoxicity against human PC-3 cells assessed as reduction in cell viability at 50 uM measured after 24 hrs by MTT assay relative to control; assay type: functional
[6] = system: PC-3; assay: Cytotoxicity against human PC-3 cells assessed as reduction in cell viability at 10 uM measured after 24 hrs by MTT assay relative to control; assay type: functional

| SMILES | Activity [1] | IC50 [2] [µM] | Activity [3] [%] | Activity [4] [%] | Activity [5] [%] | Activity [6] [%] |
| --- | --- | --- | --- | --- | --- | --- |
| C/C(=C\c1cnn(-c2ccccc2)n1)C(=O)c1ccc(F)cc1 | inactive | – | – | – | – | – |
| COc1cc(-c2cccs2)cc(-c2nnn(Cc3ccccc3)c2C)n1 | – | 1.03 | – | – | – | – |
| Cc1ccc(C(=O)/C=C/c2cnn(-c3ccccc3)n2)c(C)c1 | – | 15.6 | 39.03 | 0 | 3 | 85.61 |
| COc1cccc2c1C(=O)c1c(O)c3c(c(O)c1C2=O)C[C@@](O)(C(=O)CO)C[C@@H]3O[C@H]1C[C@H](N)[C@H](O)[C@H](C)O1 [DOXORUBICIN] | – | 0.77 | – | – | – | – |
| C/C(=C\c1cnn(-c2ccccc2)n1)C(=O)c1ccccc1 | inactive | – | – | – | – | – |
| COc1ccc(C(=O)/C=C/c2cnn(-c3ccccc3)n2)c(OC)c1 | – | 25.6 | 16.03 | 5.37 | – | 73.03 |
| O=C(/C=C/c1cnn(-c2ccccc2)n1)c1cccs1 | – | 47.9 | – | 24.23 | 50 | – |
| O=C(/C=C/c1cnn(-c2ccccc2)n1)c1ccccc1 | – | 28.6 | 44.7 | 6.38 | – | 73.62 |
| C/C(=C\c1cnn(-c2ccccc2)n1)C(=O)c1ccc(C(F)(F)F)cc1 | inactive | – | – | – | – | – |
